pIC50: −log10 of the molar value. Where two headings read alike, the source gives them in different places.
Key:
H1975 cells = test: Cell proliferation assay Method B, H1975; format: cell-based; details: Homo sapiens, NCI-H1975, NSCLC, 72 hours, read-out: antiproliferative activity IC50, H1975
Experimental: (§1) Cancer cell lines were plated at 5,000 to 10,000 per well in 96-well flat bottomed plates with various concentration of compounds. The cells were incubated with compounds for 72 hours in the presence of 0.5% of fetal bovine serum. Growth inhibition was accessed by adenosine triphosphate (ATP) content assay using Promega CellTiter-Glo kit. Promega CellTiter-Glo kit is an ATP monitoring system based on firefly luciferase. Briefly, 16 μl of mammalian cell lysis and substrate solution was added to 84 μl of culture medium per well to lyse the cells and stabilize the ATP. The mixture was shaken and incubated for 30 minutes and subsequently the luminescence was measured.

U87MG cells = test: Cell proliferation assay Method B, U87MG; format: cell-based; details: Homo sapiens, U-87 MG, Glioblastoma, 72 hours, read-out: antiproliferative activity IC50, U87MG
Experimental: as §1

HCT-118 cells = test: Cell proliferation assay Method A (ATPlite), HCT-118; format: cell-based; details: 72 hours, read-out: antiproliferative activity IC50, HCT-118
Experimental: (§2) Cancer cell lines were plated at 5,000 to 10,000 per well in 96-well flat bottomed plates with various concentration of compounds. The cells were incubated with compounds for 72 hours in the presence of 0.5% of fetal bovine serum. Growth inhibition was accessed by adenosine triphosphate (ATP) content assay using Perkin Elmer ATPlite kit. ATPlite is an ATP monitoring system based on firefly luciferase. Briefly, 25 μl of mammalian cell lysis solution was added to 50 μl of phenol red-free culture medium per well to lyse the cells and stabilize the ATP. 25 μl of substrate solution was then added to the well and subsequently the luminescence was measured.

Sk-Mel-28 cells [1] = test: Cell proliferation assay Method A (ATPlite), Sk-Mel-28; format: cell-based; details: Homo sapiens, 72 hours, read-out: antiproliferative activity IC50, Sk-Mel-28
Experimental: as §2

H1993 cells [2] = test: Cell proliferation assay Method A (ATPlite), H1993; format: cell-based; details: Homo sapiens, NCI-H1993, 72 hours, read-out: antiproliferative activity IC50, H1993
Experimental: as §2

H1993 cells [3] = test: Cell proliferation assay Method B, H1993; format: cell-based; details: Homo sapiens, NCI-H1993, NSCLC, 72 hours, read-out: antiproliferative activity IC50, H1993
Experimental: as §1

Sk-Mel-28 cells [4] = test: Cell proliferation assay Method B, Sk-Mel-28; format: cell-based; details: Homo sapiens, Melanoma, 72 hours, read-out: antiproliferative activity IC50, Sk-Mel-28
Experimental: as §1

BT474 cells = test: Cell proliferation assay Method B, BT474; format: cell-based; details: Homo sapiens, BT-474, 72 hours, read-out: antiproliferative activity IC50, BT474
Experimental: as §1

MDA-MB-468 cells = test: Cell proliferation assay Method B, MDA-MB-468; format: cell-based; details: Homo sapiens, 72 hours, read-out: antiproliferative activity IC50, MDA-MB-468
Experimental: as §1

[5] = system: HDACs (HeLa cell nuclear extracts); test: HDAC enzymatic activity, Biomol Color de Lys system; format: biochemical
Method in brief: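 IC50 from sigmoidal dose-response fits of fluorescence (Ex 350–380, Em 440–460 nm). Compounds in DMSO dilution series incubated 1 h at 25 °C with HeLa nuclear extract HDACs and colorimetric substrate, pH 8.0 Tris/Cl buffer with NaCl, KCl, MgCl2, before developer termination.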

BT-474 cells = test: Cell proliferation assay Method A (ATPlite), BT-474; format: cell-based; details: Homo sapiens, 72 hours, read-out: antiproliferative activity IC50, BT-474
Experimental: as §2

HCC1937 cells = test: Cell proliferation assay Method B, HCC1937; format: cell-based; details: Homo sapiens, 72 hours, read-out: antiproliferative activity IC50, HCC1937
Experimental: as §1

A375 cells = test: Cell proliferation assay Method B, A375; format: cell-based; details: Homo sapiens, A-375, Melanoma, 72 hours, read-out: antiproliferative activity IC50, A375
Experimental: as §1

MDA-MB-436 cells = test: Cell proliferation assay Method B, MDA-MB-436; format: cell-based; details: Homo sapiens, 72 hours, read-out: antiproliferative activity IC50, MDA-MB-436
Experimental: as §1

Ca127 cells = test: Cell proliferation assay Method B, Ca127; format: cell-based; details: HNC; Ca127; 72 hours, 0.5% fetal bovine serum, CellTiter-Glo; read-out: antiproliferative activity IC50, Ca127
Experimental: as §1

MDA-MB-231 cells = test: Cell proliferation assay Method B, MDA-MB-231; format: cell-based; details: Homo sapiens, 72 hours, 0.5% fetal bovine serum, CellTiter-Glo, read-out: antiproliferative activity IC50, MDA-MB-231
Experimental: as §1

RPMI-8226 cells = test: Cell proliferation assay Method B, RPMI-8226; format: cell-based; details: Homo sapiens, Multiple Myeloma, Method B, 72 hours, read-out: antiproliferative activity IC50, RPMI-8226
Experimental: as §1

[6] = H1975, 0.5% fetal bovine serum, CellTiter-Glo
[7] = U87MG, 0.5% fetal bovine serum, CellTiter-Glo
[8] = H1993, 0.5% fetal bovine serum, CellTiter-Glo
[9] = Sk-Mel-28, 0.5% fetal bovine serum, CellTiter-Glo
[10] = BT474, 0.5% fetal bovine serum, CellTiter-Glo
[11] = 0.5% fetal bovine serum, CellTiter-Glo
[12] = A375, 0.5% fetal bovine serum, CellTiter-Glo

SMILES	pIC50 (H1975 cells; [6])	pIC50 (U87MG cells; [7])	pIC50 (HCT-118 cells)	pIC50 (Sk-Mel-28 cells [1])	pIC50 (H1993 cells [2])	pIC50 (H1993 cells [3]; [8])	pIC50 (Sk-Mel-28 cells [4]; [9])	pIC50 (BT474 cells; [10])	pIC50 (MDA-MB-468 cells; [11])	pIC50 [5]	pIC50 (BT-474 cells)	pIC50 (HCC1937 cells; [11])	melting point [°C]	pIC50 (A375 cells; [12])	pIC50 (MDA-MB-436 cells; [11])	pIC50 (Ca127 cells)	other results
CN(Cc1cc2nc(-c3cccc4[nH]ncc34)nc(N3CCOCC3)c2s1)c1ncc(C(=O)NO)cn1 [Compound 54, 2-(((2-(1H-indazol-4-yl)-4-morpholinothieno[3,2-d]pyrimidin-6-yl)methyl)(methyl)amino)-N-hydroxypyrimidine-5-carboxamide]	7.00 to 8.00	7.00 to 8.00	> 7.00	> 7.00	> 7.00	7.00 to 8.00	7.00 to 8.00	> 8.00	> 8.00	> 7.00	> 7.00	7.00 to 8.00	197 to 200				
CN(Cc1cc2nc(-c3ccc(N)nc3)nc(N3CCOCC3)c2s1)c1ncc(C(=O)NO)cn1 [Compound 110, 2-(((2-(6-Aminopyridin-3-yl)-4-morpholinothieno[3,2-d]pyrimidin-6-yl)methyl)(methyl)amino)-N-hydroxypyrimidine-5-carboxamide]	7.00 to 8.00	> 8.00	> 7.00	> 7.00	> 7.00	7.00 to 8.00	7.00 to 8.00	> 8.00	7.00 to 8.00	> 7.00	> 7.00	7.00 to 8.00	175 to 181	7.00 to 8.00	7.00 to 8.00	7.00 to 8.00	pIC50 (MDA-MB-231 cells): 7.00 to 8.00
CN(Cc1cc2nc(-c3cnc(N)nc3)nc(N3CCOCC3)c2s1)c1ncc(C(=O)NO)cn1 [Compound 115, 2-(((2-(2-aminopyrimidin-5-yl)-4-morpholinothieno[3,2-d]pyrimidin-6-yl)methyl)(methyl)amino)-N-hydroxypyrimidine-5-carboxamide]	7.00 to 8.00	7.00 to 8.00	> 7.00	> 7.00	> 7.00		7.00 to 8.00	7.00 to 8.00	6.00 to 7.00	> 7.00	> 7.00	7.00 to 8.00	175 to 181	7.00 to 8.00	6.00 to 7.00	7.00 to 8.00	
CNc1ncc(-c2nc(N3CCOCC3)c3sc(CN(C)c4ncc(C(=O)NO)cn4)cc3n2)cn1 [Compound 116, N-hydroxy-2-(methyl((2-(2-(methylamino)pyrimidin-5-yl)-4-morpholinothieno[3,2-d]pyrimidin-6-yl)methyl)amino)pyrimidine-5-carboxamide]			> 7.00	> 7.00	> 7.00					> 7.00	> 7.00		183 to 187				pIC50 (H1975 cells; Method B): 7.00 to 8.00; pIC50 (U87MG cells; Method B): 7.00 to 8.00; pIC50 (H1993 cells [3]; Method B): 7.00 to 8.00; pIC50 (A375 cells; Method B): 7.00 to 8.00; pIC50 (MDA-MB-436 cells; Breast, Method B): 7.00 to 8.00; pIC50 (Sk-Mel-28 cells [4]; SK-MEL-28, Method B): > 8.00; pIC50 (BT474 cells; Breast, Method B): 7.00 to 8.00; pIC50 (MDA-MB-468 cells; Breast, Method B): 7.00 to 8.00; pIC50 (HCC1937 cells; Breast, Method B): 7.00 to 8.00; pIC50 (RPMI-8226 cells): > 8.00

Source: patent US8906909B2 (Curis, Inc., priority 2009, dated 2014)
